Where two headings read alike, the source gives them in different places. *1 amine or outer side, *2 acyl side, *3 side chain or, on linkers, in order; H or OH if unused. Where no end group is shown, it is not given here. Side-chain parts run from the residue outwards. [ ]: non-standard residue; d: D form. The star is where a group is joined. γGlu = O=C(O)[C@H](CCC(=O)[*:2])N[*:1]; Pyrrolidine(2S-CN) = N#C[C@@H]1CCCN1*; NMeY = CN[C@@H](Cc1ccc(O)cc1)C(=O)O; AEEA = NCCOCCOCC(=O)O
Key:
plasma carboxypeptidase = assay: Carboxypeptidase activity assay, PYY(3-36) in human plasma; format: biochemical; details: for inhibition of the formation of PYY(3-35) (in words): 0.5 mM in human plasma, FIGS. 10-12; for inhibition of plasma carboxypeptidase activity (in words): protease inhibitor at a final concentration of 1 mM
Description: Carboxypeptidase activity assays were performed in the presence of various agents to test for carboxypeptidase inhibitor activity of the agents.
The remainder of the sample was placed in an incubator at 37° C., mixing at 600 RPM for sixty minutes. At 10 minute intervals, a 100 μl sample of the mixture was removed and transferred to a separate microcentrifuge tubes. Following the transfer of the 100 μL sample at the zero time point and each 10 minute interval, each collected sample was extracted by slow addition of 100 μl cold 0.2% formic acid:acetonitrile, while mixing. After addition of the acetonitrile solution, the sample was vortex mixed at high speed for 15 seconds. The extracted samples were stored at −20° C. for at least 20 minutes and then centrifuged at 11,000×g for 10 minutes at 5° C. The supernatant of each sample was transferred to a new microcentrifuge tube, centrifuged again, and finally transferred for LC/MS analysis. The MS analysis was a Q1 single ion monitoring method that detects the most intense ion of the parent molecule and the peptide fragment of interest.

NIH/Swiss mice = assay: Oral glucose tolerance test (OGTT), glucose lowering; format: in vivo; details: 30 nM/kg, blood glucose
Description: . Test compounds were injected IP (t=0 min) immediately following baseline measurements of 2 hour fasted NIH/Swiss mice. Blood samples were taken at 60, 120, and 180 minutes after injection. In some assays, samples were also taken at 240 minutes after the injection. Blood glucose was measured with a One-Touch® Ultra® glucose meter (LifeScan, Inc., Milpitas, Calif.). […].
The tests were performed as described in Example 5.

ACE from rabbit lung = molecular target: T1, ACE from rabbit lung (Oryctolagus cuniculus, UniProt P12822); assay: ACE inhibition assay; format: biochemical
T1 construct: ACE from rabbit lung; purchased Sigma Chemical Co; host or cells: rabbit lung tissue
T1 sequence (P12822 34-1310): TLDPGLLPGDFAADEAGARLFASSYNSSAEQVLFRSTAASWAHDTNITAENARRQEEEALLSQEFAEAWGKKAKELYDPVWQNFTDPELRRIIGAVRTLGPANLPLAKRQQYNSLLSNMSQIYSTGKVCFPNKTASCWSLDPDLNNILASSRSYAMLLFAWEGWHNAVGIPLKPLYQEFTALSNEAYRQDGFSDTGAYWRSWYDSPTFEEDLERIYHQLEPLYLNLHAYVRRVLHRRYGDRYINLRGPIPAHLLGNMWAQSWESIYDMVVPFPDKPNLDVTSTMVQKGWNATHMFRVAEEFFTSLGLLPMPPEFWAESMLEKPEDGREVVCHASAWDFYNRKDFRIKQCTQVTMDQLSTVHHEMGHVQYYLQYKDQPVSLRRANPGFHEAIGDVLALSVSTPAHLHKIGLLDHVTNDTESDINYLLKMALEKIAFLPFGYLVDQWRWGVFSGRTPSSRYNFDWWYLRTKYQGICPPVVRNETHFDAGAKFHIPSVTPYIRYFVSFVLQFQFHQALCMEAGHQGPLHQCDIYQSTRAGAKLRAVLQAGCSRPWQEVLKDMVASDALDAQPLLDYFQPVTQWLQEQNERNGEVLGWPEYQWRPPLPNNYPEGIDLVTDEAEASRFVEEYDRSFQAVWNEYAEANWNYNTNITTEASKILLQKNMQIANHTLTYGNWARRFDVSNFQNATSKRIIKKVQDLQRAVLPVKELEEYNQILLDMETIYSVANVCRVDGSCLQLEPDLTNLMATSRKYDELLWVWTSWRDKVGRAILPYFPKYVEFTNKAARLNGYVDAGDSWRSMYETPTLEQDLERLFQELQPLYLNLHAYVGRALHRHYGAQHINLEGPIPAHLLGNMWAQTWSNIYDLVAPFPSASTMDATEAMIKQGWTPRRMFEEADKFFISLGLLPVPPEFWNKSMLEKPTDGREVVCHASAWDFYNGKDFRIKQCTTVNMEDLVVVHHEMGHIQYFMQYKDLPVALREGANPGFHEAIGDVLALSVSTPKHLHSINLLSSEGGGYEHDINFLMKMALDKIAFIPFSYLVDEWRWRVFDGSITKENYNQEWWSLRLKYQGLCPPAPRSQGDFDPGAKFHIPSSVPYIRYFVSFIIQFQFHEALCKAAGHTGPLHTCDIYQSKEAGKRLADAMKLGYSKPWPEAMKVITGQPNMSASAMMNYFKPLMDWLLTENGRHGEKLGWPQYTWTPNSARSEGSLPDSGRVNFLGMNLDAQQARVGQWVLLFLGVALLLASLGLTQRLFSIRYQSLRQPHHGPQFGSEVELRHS
Description: Peptide-ACE peptidase inhibitor conjugate compounds were assessed in an ACE inhibition assay using purified ACE enzyme and chromogenic substrates. An ACE stock solution was prepared by dissolving 0.1 unit of enzyme (ACE from rabbit lung, Sigma Chemical Co., St. Louis, Mo.) in 0.640 mL of HEPES buffer (0.1 M, pH=8). A 2 mM stock solution of substrate (N-benzyloxycarbonyl-Phe-His-Leu-OH) dissolved in methanol. The ACE inhibitor compounds were dissolved in phosphate buffer (0.1 M, pH=8) at concentrations of 0.0, 1, 10, 20, 60 and 100 μM. For the inhibition assay, six 2 mL microcentrifuge tubes were prepared containing 1.45 mL of phosphate buffer pH=8, 0.05 mL of 10% NaCl and 0.015 mL of substrate solution. To each microcentrifuge tube was added 0.015 mL of one of the ACE inhibitor compound's stock solutions. The solutions were heated at 37° C. for about 5 minutes. The reaction was started by the addition of 5 μL of the ACE stock solution to each tube mixture (30 seconds in between). The reaction mixtures were incubated at 37° C. After 5 min, 10 min, 30 min and 60 min., aliquots of 100 μL were taken from each tube (each sample was taken in intervals of 30 seconds). Tubes containing the 100 μL sample were floated in a boiling water bath for 5 min. and then cooled. The reaction samples were then treated with 20 μL of 2M NaOH and 20 μL of 0.1% phthaldialdehyde solution. The tubes were shaken for 4 minutes and 10 μL of 6 M HCl were added. […] Initial rates were determined from linear portions of product release curves. Starting substrate concentration in all assays was 20 μM. Apparent binding constants (Kd^app or Ki^app) of inhibitors to ACE were determined by fitting inhibition curves (initial rate vs. inhibitor concentration) to equation:
[formula] where v0 is reaction rate in the absence of inhibitor and [I]-inhibitor concentration. Fits were done by least-squares method using KaleidaGraph 3.6 (Synergy Software, Reading Pa.).

CNC(Cc1ccc(O)cc1)C(N)=O (stereo not drawn) [N-methyl-Tyr-NH2]
inhibition of the formation of PYY(3-35) (in words) (plasma carboxypeptidase): did not inhibit

[^16Lys (N-ε-(Aun-Aun-(γ-L-Glu-2-(S)-cyano pyrrolidyl)))] GIP(1-30)-exendin(31-39)
OGTT (30 nM/kg) % maximal decrease (NIH/Swiss mice): −3%

O=C(O)CN(CCN(CC(=O)O)CC(=O)O)CC(=O)O [EDTA, reference compound]
inhibition of plasma carboxypeptidase activity (in words) (plasma carboxypeptidase): not

CC[C@H](C)[C@H](NC(=O)[C@H](Cc1ccccc1)NC(=O)[C@H](CC(C)C)NC(=O)[C@H](CCCNC(=N)N)NC(=O)[C@@H](NC(=O)[C@H](C)NC(=O)[C@H](CCC(=O)O)NC(=O)[C@H](CCC(=O)O)NC(=O)[C@H](CCC(=O)O)NC(=O)[C@H](CC(C)C)NC(=O)[C@H](CCC(N)=O)NC(=O)[C@H](CCCCN)NC(=O)[C@H](CO)NC(=O)[C@H](CC(C)C)NC(=O)[C@H](CC(=O)O)NC(=O)[C@H](CO)NC(=O)[C@@H](NC(=O)[C@H](Cc1ccccc1)NC(=O)[C@@H](NC(=O)CNC(=O)[C@H](CCC(=O)O)NC(=O)CNC(=O)[C@@H](N)Cc1c[nH]cn1)[C@@H](C)O)[C@@H](C)O)C(C)C)C(=O)N[C@@H](CCC(=O)O)C(=O)N[C@@H](Cc1ccccc1)C(=O)N[C@@H](CC(C)C)C(=O)N[C@@H](CCCCN)C(=O)N[C@@H](CC(N)=O)C(=O)NCC(=O)NCC(=O)NCCCC[C@H](NC(CCc1ccccc1)C(=O)O)C(=O)N1CCCC1C(=O)O (stereo partly drawn) [3633/42/1, [^14Leu,^25Phe]Exendin-4(1-28)-Gly-Gly-CONH-Lisinopril diacid]
IC50 (ACE from rabbit lung): 1500 nM

CC(C)C[C@H](NP(=O)(O)O[C@@H]1O[C@@H](C)[C@H](O)[C@@H](O)[C@H]1O)C(=O)N[C@@H](Cc1c[nH]c2ccccc12)C(=O)O [phosphoramidon, reference compound]
inhibition of plasma carboxypeptidase activity (in words) (plasma carboxypeptidase): not

[Lys^30 N-ε-(Ado-(γ-L-Glu-2-(S)-cyano pyrrolidyl))]GIP(1-30) (YAEGTFISDYSIAMDKIHQQDFVNWLLAQK([AEEA-γGlu-Pyrrolidine(2S-CN)]))
OGTT (30 nM/kg) % maximal decrease (NIH/Swiss mice): −10%

^36N-methyl-Tyr-amide-PYY(34-36) (Gln-Arg-[NMeY]-NH2; N-terminus assumed; SMILES CN(C(=O)[C@H](CCCNC(=N)N)NC(=O)[C@@H](N)CCC(N)=O)[C@@H](Cc1ccc(O)cc1)C(N)=O) [N-terminal truncation of 36N-methyl-Tyr-amide-PYY(3-36)]
inhibition of the formation of PYY(3-35) (in words) (plasma carboxypeptidase): did not inhibit

GIP(1-30)-exendin-4(31-39)-Ado-Lys-N-ε-(2-(S)-cyano pyrrolidyl)
OGTT (30 nM/kg) % maximal decrease (NIH/Swiss mice): −18%

CC[C@H](C)[C@H](NC(=O)[C@H](CC(C)C)NC(=O)[C@H](Cc1c[nH]c2ccccc12)NC(=O)[C@H](CC(=O)O)NC(=O)[C@@H](NC(=O)[C@H](Cc1ccccc1)NC(=O)[C@H](CCC(=O)O)NC(=O)[C@H](CCCCN)NC(=O)[C@H](C)NC(=O)[C@H](C)NC(=O)[C@H](CCCCN)NC(=O)[C@H](CCC(=O)O)NC(=O)[C@H](CC(=O)O)NC(=O)[C@H](CC(C)C)NC(=O)[C@H](CCC(N)=O)NC(=O)[C@H](CCC(N)=O)NC(=O)[C@@H](NC(=O)[C@@H](NC(=O)[C@H](CC(=O)O)NC(=O)[C@H](CO)NC(=O)[C@@H](NC(=O)[C@H](Cc1ccccc1)NC(=O)[C@@H](NC(=O)CNC(=O)[C@H](CCC(=O)O)NC(=O)[C@H](C)NC(=O)[C@@H](N)Cc1c[nH]cn1)[C@@H](C)O)[C@@H](C)O)C(C)C)[C@@H](C)O)[C@@H](C)CC)C(=O)N[C@@H](CC(N)=O)C(=O)NCC(=O)NCC(=O)N1CCC[C@H]1C(=O)N[C@@H](CO)C(=O)N[C@@H](CCCCN)C(=O)N[C@@H](CCC(=O)O)C(=O)N[C@H](C(=O)N[C@H](C(=O)N[C@@H](CO)C(=O)NCCOCCOCCOCC(=O)NCCOCCOCC(=O)NCCCC[C@H](NC(CCc1ccccc1)C(=O)O)C(=O)N1CCC[C@H]1C(=O)O)[C@@H](C)CC)[C@@H](C)CC (stereo partly drawn) [Compound 5713]
IC50 (ACE from rabbit lung; substrate N-benzyloxycarbonyl-Phe-His-Leu-OH 20 μM, read-out: ACE inhibition IC50): 700 nM

GIP(1-30)-exendin-4(31-39)-Ado-Ado-Lys-N-ε-(2-(S)-cyano pyrrolidyl)
OGTT (30 nM/kg) % maximal decrease (NIH/Swiss mice): −22%

GIP(1-30)-Ado-Lys-N-ε-(2-(S)-cyano pyrrolidyl) (YAEGTFISDYSIAMDKIHQQDFVNWLLAQK)
OGTT (30 nM/kg) % maximal decrease (NIH/Swiss mice): −18%

^36N-methyl-Tyr-amide-PYY(22-36) (ASLRHYLNLVTRQR[NMeY]-NH2; N-terminus assumed; SMILES CC(C)C[C@H](NC(=O)[C@H](CO)NC(=O)[C@H](C)N)C(=O)N[C@@H](CCCNC(=N)N)C(=O)N[C@@H](Cc1c[nH]cn1)C(=O)N[C@@H](Cc1ccc(O)cc1)C(=O)N[C@@H](CC(C)C)C(=O)N[C@@H](CC(N)=O)C(=O)N[C@@H](CC(C)C)C(=O)N[C@H](C(=O)N[C@H](C(=O)N[C@@H](CCCNC(=N)N)C(=O)N[C@@H](CCC(N)=O)C(=O)N[C@@H](CCCNC(=N)N)C(=O)N(C)[C@@H](Cc1ccc(O)cc1)C(N)=O)[C@@H](C)O)C(C)C) [N-terminal truncation of 36N-methyl-Tyr-amide-PYY(3-36)]
inhibition of the formation of PYY(3-35) (in words) (plasma carboxypeptidase): measurable but lower activity

NCCc1ccc(S(=O)(=O)F)cc1 [AEBSF, 4-(2-aminoethyl)-bezenesulfonylfluoride, reference compound]
inhibition of plasma carboxypeptidase activity (in words) (plasma carboxypeptidase): inhibited

Lys^30 N-ε-(Ado-(γ-L-Glu-2-(S)-cyano pyrrolidyl)) GIP(1-30)-exendin-4(31-39)
OGTT (30 nM/kg) % maximal decrease (NIH/Swiss mice): −11%

[^14Leu] GIP(1-30)-Ado-Lys-N-ε-(2-(S)-cyano pyrrolidyl) (YAEGTFISDYSIALDKIHQQDFVNWLLAQK)
OGTT (30 nM/kg) % maximal decrease (NIH/Swiss mice): −9%

GIP(1-30)-Ado-Ado-Lys-N-ε-(2-(S)-cyano pyrrolidyl)
OGTT (30 nM/kg) % maximal decrease (NIH/Swiss mice): −17%

NCCCC[C@H](N[C@@H](CCc1ccccc1)C(=O)O)C(=O)N1CCC[C@H]1C(=O)O [Lisinopril, reference compound]
IC50 (ACE from rabbit lung; commercial lisinopril, read-out: ACE inhibition IC50): 1.3 nM | IC50 (ACE from rabbit lung; synthesized lisinopril, read-out: ACE inhibition IC50): 2.8 nM
